Among the data in patent US12479825B2, “Melanocortin subtype-2 receptor (MC2R) antagonists and uses thereof” (Crinetics Pharmaceuticals, Inc., priority 2019, dated 2025) are Ki values, retold here.

In this assay the target is T1, hMC2 receptor (Homo sapiens, UniProt Q01718).
T1 construct: host or cells: CRE-bla-CHO-K1 cells, crude membrane fraction
The assay can be described thus: hMC2 membrane binding assay ([125I]ACTH (1-39) Tyr23, SPA). As to conditions: crude hMC2R membranes from CRE-bla-CHO-K1 cells expressing hMC2 receptor and hMRAP; 0.2 nM [125I]ACTH (1-39) Tyr23; 1.5 hours at room temperature; read-out: MC2R binding potency. How it is done: Crude membrane fractions are prepared from CRE-bla-CHO-K1 cells stably expressing hMC2 receptor and hMRAP accessory protein (Thermo Fisher). The cells are grown to 85-100% confluence on standard tissue culture dishes in GlutaMax DMEM growth media (Gibco) with following additives: 10% dialyzed FBS (Gemini), 0.1 mM NEAA (Gibco), 25 mM HEPES (Gibco), 5 μg/mL blasticidin (Goldbio), 100 μg/mL zeocin (Invitrogen), 600 μg/mL hygromycin (Goldbio). To prepare membranes, cells are scraped and collected in 1× Dulbecco's phosphate buffered saline (Corning) and then pelleted at 1000 RPM's. The cell pellet is reconstituted in membrane preparation buffer (20 mM HEPES, 6 mM MgCl2 and 1 mM EGTA, protease inhibitor tablets (Pierce) adjusted to pH 7.4), homogenized using a dounce homogenizer, and the resulting membrane fraction is pelleted by centrifugation at 12,000 RPM's. The membrane pellet is resuspended in membrane preparation buffer, snap freezed and stored at −80° C. for later use.
The hMC2 membrane binding assay utilizes the following components: radiolabel [^125I]ACTH (1-39) Tyr23 (PerkinElmer), wheat germ agglutinin coated PVT SPA beads (PerkinElmer), crude hMC2R membranes, and compounds. Briefly hMC2R membranes are incubated with SPA beads in binding assay buffer (50 mM HEPES, 5 mM MgCl2, 1 mM CaCl2, 0.2% BSA, protease inhibitor tablets (Pierce) adjusted to pH7.4) prior to assay initiation. A dose response of compound (the final concentration of compound is typically 0-10,000 nM), SPA membranes, and [^125I]ACTH (1-39) Tyr23 at a final concentration of 0.2 nM is plated in a 96-well assay plate and allowed to incubate 1.5 hours at room temperature. Assay plates are read using a Top Count NXT and Ki values for compounds are determined using a GraphPad Prism 6 non-linear regression analysis.

T1 sequence (Q01718 whole entry): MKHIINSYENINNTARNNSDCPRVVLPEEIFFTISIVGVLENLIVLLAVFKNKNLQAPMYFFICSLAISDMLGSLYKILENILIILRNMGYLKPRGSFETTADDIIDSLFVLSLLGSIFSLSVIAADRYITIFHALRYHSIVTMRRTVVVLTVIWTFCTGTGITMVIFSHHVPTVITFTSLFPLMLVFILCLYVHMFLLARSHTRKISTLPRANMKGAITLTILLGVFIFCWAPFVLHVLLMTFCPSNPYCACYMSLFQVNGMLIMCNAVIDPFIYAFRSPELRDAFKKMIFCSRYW
T1 sequence (Q8TCY5 whole entry partner): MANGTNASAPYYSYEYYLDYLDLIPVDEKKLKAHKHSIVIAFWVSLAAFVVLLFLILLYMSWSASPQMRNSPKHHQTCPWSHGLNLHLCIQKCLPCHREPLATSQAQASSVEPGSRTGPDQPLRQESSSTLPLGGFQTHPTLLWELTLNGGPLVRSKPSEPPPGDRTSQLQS

Turning to `CCOc1ncccc1-c1ccc(N2CCN(C(=O)N3CCC[C@H]3C(F)(F)F)C[C@H]2CC)c(O[C@@H]2CCNC2)n1` [1-8, 2′-ethoxy-5-[(2R)-2-ethyl-4-[(2S)-2-(trifluoromethyl)pyrrolidine-1-carbonyl]piperazin-1-yl]-6-[(3R)-pyrrolidin-3-yloxy]-2,3′-bipyridine], the Ki was less than 10 nM.

For the compound `CCOc1ncccc1-c1ccc(N2CC[C@H](Oc3ccc(Cl)cc3C(F)(F)F)C[C@@H]2CC)c(C(=O)N[C@@H]2CCN(C)C2)n1` (single isomer, unassigned) [2-10, 5-[(2S,4S)*-4-[4-chloro-2-(trifluoromethyl)phenoxy]-2-ethylpiperidin-1-yl]-2′-ethoxy-N-[(3R)-1-methylpyrrolidin-3-yl]-[2,3′-bipyridine]-6-carboxamide], the Ki was in the range of 10 to 100 nM.

As to “5-{cis-4-[4-chloro-2-(difluoromethyl)phenoxy]-2-cyclopropylpiperidin-1-yl}-2′-ethoxy-N-[(3R)-1-methylpyrrolidin-3-yl]-[2,3′-bipyridine]-6-carboxamide [2-7]”, the Ki was less than 10 nM. Take `CCOc1ncccc1-c1ccc(N2CC[C@@H](Oc3ccc(C(F)(F)F)cc3C#N)C[C@H]2CC)c(O[C@@H]2CCN(C)C2)n1` (mixture of isomers) [3-8, 2-{[rac-(2R,4R)-1-(2′-ethoxy-6-{[(3R)-1-methylpyrrolidin-3-yl]oxy}-[2,3′-bipyridin]-5-yl)-2-ethylpiperidin-4-yl]oxy}-5-(trifluoromethyl)benzonitrile]: the Ki lay in the range of 10 to 100 nM. On to `CCOc1ncccc1-c1ccc(N2CC[C@@H](Oc3ccc(C(F)(F)F)nc3C#N)C[C@H]2CC)c(C(=O)N[C@@H]2CCN(C)C2)n1` (single isomer, unassigned) [2-18], for which the Ki is less than 10 nM.

As for `CCOc1ccc(C(=O)N2CCN(c3ccc(-c4cccnc4OCC)nc3OCCNC)[C@H](CC)C2)c(C(F)(F)F)n1` [1-9, [2-({2′-ethoxy-5-[(2R)-4-[6-ethoxy-2-(trifluoromethyl)pyridine-3-carbonyl]-2-ethylpiperazin-1-yl]-[2,3′-bipyridin]-6-yl}oxy)ethyl](methyl)amine], the Ki was less than 10 nM. In the case of `CCOc1ncccc1-c1ccc(N2CCN(C(=O)c3ccc(F)cc3C(F)F)C[C@H]2CC)c(OCCNC)n1` [1-10, [2-({5-[(2R)-4-[2-(difluoromethyl)-4-fluorobenzoyl]-2-ethylpiperazin-1-yl]-2′-ethoxy-[2,3′-bipyridin]-6-yl}oxy)ethyl](methyl)amine] it was less than 10 nM; in that of `CCOc1ncccc1-c1ccc(C2CCN(c3ccc(C(F)(F)F)nc3C#N)CC2)c(OCCNC)n1` [3-2, 3-(4-{2′-ethoxy-6-[2-(methylamino)ethoxy]-[2,3′-bipyridin]-5-yl}piperidin-1-yl)-6-(trifluoromethyl)pyridine-2-carbonitrile], less than 10 nM.

As to `CCOc1ncccc1-c1ccc(N2CCN(C(=O)c3ccc(F)cc3C(F)F)C[C@H]2CC)c(O[C@@H]2CCNC2)n1` [1-6, 5-[(2R)-4-[2-(difluoromethyl)-4-fluorobenzoyl]-2-ethylpiperazin-1-yl]-2′-ethoxy-6-[(3R)-pyrrolidin-3-yloxy]-2,3′-bipyridine], the Ki was less than 10 nM. For the compound `CCOc1ncccc1-c1ccc(N2CC[C@H](Oc3ccc(C(F)(F)F)nc3C#N)C[C@@H]2CC)c(C(=O)N[C@@H]2CN3CCC2CC3)n1` (mixture of isomers) [2-19, N-[(3S)-1-azabicyclo[2.2.2]octan-3-yl]-5-(cis-4-{[2-cyano-6-(trifluoromethyl)pyridin-3-yl]oxy}-2-ethylpiperidin-1-yl)-2′-ethoxy-[2,3′-bipyridine]-6-carboxamide], the Ki is less than 10 nM. In the case of `CCOc1ncccc1-c1ccc(N2CC[C@H](Oc3ccc(C(F)(F)F)cc3C#N)C[C@@H]2C2CC2)c(C(=O)N[C@@H]2CCN(C)C2)n1` (mixture of isomers) [2-6, 5-{cis-4-[2-cyano-4-(trifluoromethyl)phenoxy]-2-cyclopropylpiperidin-1-yl}-2′-ethoxy-N-[(3R)-1-methylpyrrolidin-3-yl]-[2,3′-bipyridine]-6-carboxamide] it was less than 10 nM; in that of `CCOc1ncccc1-c1ccc(N2CC[C@H](Oc3ccc(C(F)(F)F)cc3C#N)C[C@H]2C2CC2)c(C(=O)N[C@@H]2CCNC2)n1` (racemic) [2-3, 5-[trans*4-[2-cyano-4-(trifluoromethyl)phenoxy]-2-cyclopropylpiperidin-1-yl]-2′-ethoxy-N-[(3R)-pyrrolidin-3-yl]-[2,3′-bipyridine]-6-carboxamide], 10 to 100 nM.

For `CCOc1ncccc1-c1ccc(N2CCN(C(=O)N3CCC[C@H]3C(F)(F)F)C[C@H]2CC)c(OCCN)n1` [1-14, 2-({2′-ethoxy-5-[(2R)-2-ethyl-4-[(2S)-2-(trifluoromethyl)pyrrolidine-1-carbonyl]piperazin-1-yl]-[2,3′-bipyridin]-6-yl}oxy)ethan-1-amine], the Ki was less than 10 nM. The figure for `CCOc1ncccc1-c1ccc(N2CC[C@@H](Oc3ccc(Cl)cc3C(F)(F)F)C[C@H]2CC)c(C(=O)N[C@@H]2CCN(C)C2)n1` (single isomer, unassigned) [2-9, 5-[(2R,4R)*-4-[4-chloro-2-(trifluoromethyl)phenoxy]-2-ethylpiperidin-1-yl]-2′-ethoxy-N-[(3R)-1-methylpyrrolidin-3-yl]-[2,3′-bipyridine]-6-carboxamide] is less than 10 nM.
